Measured values: US20220119355A1, “SATURATED-RING-FUSED DIHYDROPYRIMIDINONE OR DIHYDROTRIAZINONE COMPOUNDS AND PHARMACEUTICAL USE THEREOF” (Japan Tobacco Inc., priority 2018, published 2022)

Columns and labels:
human RORγ = molecular target: T1, human RORγ (Homo sapiens, UniProt P51449); assay: In-vitro reporter gene assay for inhibitory activity against RORγ transcription, Test Method A (GAL4-hRORγ LBD / pG5-Luc in CHO cells); assay type: cell-based; details: luciferase reporter, 2 days
T1 construct: from Ser253 to Lys518 for human RORγ; expressed in transfected cells; host or cells: CHO cells (transient co-transfection with pG5-Luc)
T1 sequence (P51449 253-518): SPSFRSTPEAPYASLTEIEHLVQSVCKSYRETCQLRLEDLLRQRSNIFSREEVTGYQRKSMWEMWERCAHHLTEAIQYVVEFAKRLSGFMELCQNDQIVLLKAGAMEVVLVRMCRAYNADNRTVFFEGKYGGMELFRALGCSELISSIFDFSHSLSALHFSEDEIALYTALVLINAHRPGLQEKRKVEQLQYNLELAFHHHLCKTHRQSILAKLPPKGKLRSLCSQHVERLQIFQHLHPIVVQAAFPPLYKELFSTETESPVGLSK
Procedure: (§1) In-Vitro Assay for Inhibitory Activity Against RORγ Transcription
(§2) Inhibitory activity against RORγ transcription was assessed for test compounds by either of the following Test Method A or B of reporter gene assay.
(§3) cDNAs encoding human and mouse RORγ ligand binding domains (LBD) were obtained based on the sequences of human RORγ (Genbank registered number NM_005060.3) and mouse RORγ (Genbank registered number NM_011281.2) (LBD sequences: from Ser253 to Lys518 for human RORγ; from Ile251 to Lys516 for mouse RORγ).
(§4) LBD cDNAs of human and mouse RORγ were inserted into pFA-CMV vector (Stratagene), which expresses GAL4-DNA binding domain fusion protein. The resulting plasmids are hereinafter referred to as GAL4-hRORγ plasmid and GAL4-mRORγ plasmid, respectively.
(§5) GAL4-hRORγ plasmid or GAL4-mRORγ plasmid was transiently co-transfected into Chinese hamster ovary cells (CHO cells) with pG5-Luc (Promega), reporter plasmid expressing firefly luciferase in a GAL4-dependent manner.
(§6) TransIT (Registered trademark) CHO Transfection Kit (Mirus) was used to co-transfect CHO cells with the plasmids. One day prior to the assay, CHO cells were suspended in HAM F-12 Nutrient medium containing 10% (v/v) fetal bovine serum and seeded at 6×10^6 cells per 175 cm^2 cell culture flask each. 54 μL of TransIT (Registered trademark) CHO reagent was added into a 15 mL tube containing 1.16 mL of HAM F-12 Nutrient medium without fetal bovine serum, and then mixed and incubated at room temperature for 10 minutes. 36 μL of a plasmid solution containing 400 ng of GAL4-hRORγ plasmid, 9000 ng of pG5-Luc plasmid, and 8600 ng of pcDNA3 plasmid were added into the tube and mixed gently. In the case of mouse assay, a plasmid solution containing 250 ng of GAL4-mRORγ plasmid, 9000 ng of pG5-Luc plasmid, and 8750 ng of pcDNA3 plasmid was added, instead. The mixture was incubated at room temperature for 10 minutes. 9 μL each of CHO Mojo Reagent were then added into each tube and mixed gently. The mixture was incubated at room temperature for 10 minutes. The resulting transfection reagent was applied to the cell culture. After incubation at 37° C., 5% CO2 for 4 hours, the plasmid-transfected CHO cells were harvested by trypsin treatment. The collected cells were resuspended in culture medium and plated into a 384-well-white plate at 8,000 cells/50 μL/well. The plate was let stand at room temperature for 1 hour and then further incubated at 37° C., 5% CO2 for 3 hours. A test compound was dissolved in DMSO to obtain a concentration of 10 mM. Each solution was serially diluted with DMSO and further diluted with culture medium just before use. The test compound solutions were added. to the cells in the plate at 8 different concentrations. The final concentration of DMSO was 0.2% (v/v). After the addition of test compound, the cells were incubated at […], 5% CO2 for 2 days.
(§7) RORγ transcriptional activity was detected as the intracellular luciferase activity using SteadyLite HTS Reporter Gene Assay System (Perkin Elmer). SteadyLite Reagent was diluted five-fold with Extension buffer (10 mM Tricine, 0.2% (w/v) bovine serum albumin, 0.02% (v/v) Tween-20) to obtain a luciferase substrate solution. After the measurement of the cell viability with Resazurin, the medium was removed in the plate and the luciferase substrate solution was added thereto. After the incubation at room temperature for 10 minutes, luminescence of each well was measured with a microplate reader. The luciferase activity derived from the luminescence count in a vehicle-control well treated with 0.2% DMSO alone was defined as 100%, and the luciferase activity after treatment with the test compound was calculated as a percentage, %-of-control, based on the value of the vehicle-control. An EC50 value of the test compound was calculated by curve fitting with GraphPad Prism. The luminescence counts at the concentration of test compound where cytotoxicity was observed were excluded from data analysis. […]

mouse RORγ = molecular target: T2, mouse RORγ (Mus musculus, UniProt P51450); assay: In-vitro reporter gene assay for inhibitory activity against RORγ transcription, Test Method A (GAL4-mRORγ LBD / pG5-Luc in CHO cells); assay type: cell-based; details: luciferase reporter, 2 days
T2 construct: from Ile251 to Lys516 for mouse RORγ; expressed in transfected cells; host or cells: CHO cells (transient co-transfection with pG5-Luc)
T2 sequence (P51450 251-516): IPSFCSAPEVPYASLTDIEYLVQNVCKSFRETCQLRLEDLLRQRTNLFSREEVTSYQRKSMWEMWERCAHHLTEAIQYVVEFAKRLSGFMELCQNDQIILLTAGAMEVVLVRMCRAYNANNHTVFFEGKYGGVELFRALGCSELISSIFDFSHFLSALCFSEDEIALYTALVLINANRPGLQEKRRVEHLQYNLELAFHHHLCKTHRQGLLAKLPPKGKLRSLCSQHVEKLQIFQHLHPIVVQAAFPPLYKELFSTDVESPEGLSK
Procedure: as §1, §2, §3, §4, §5, §6, §7

Row | EC50 (human RORγ) [µM] | EC50 (mouse RORγ) [µM] | Structure (SMILES)
1 | 1.63 | 0.84 | CCOC(=O)CCN1C=C2C(CC(=O)O)CCCC2(c2ccc(CCC(C)(C)C)c(Cl)c2)NC1=O (racemic) [Example 45]
2 | 0.016 | 0.024 | CC(C)(C)CCc1ccc(C23CCC(C)(C)CC2=CN(CCC(=O)O)C(=O)N3)cc1Cl (racemic) [Example 74]
3 | 0.048 | 0.048 | CC(C)(C)CCc1ccc(C23CCC(CC#N)C2=CN(CCC(=O)O)C(=O)N3)cc1Cl (racemic) [Example 31]
4 | 9.87 | 9.79 | CC(C)(C)CCc1ccc([C@]23CCC(C)(C)CC2=CN(CCC(=O)O)C(=O)N3)cc1Cl (single isomer, unassigned) [Example 82]
5 | 1.69 | 0.536 | CC(C)(C)COc1ccc(C23CCCC2=NNC(=O)N3)cc1Cl (racemic) [Example 1, 4a-[3-Chloro-4-(2,2-dimethyl-propoxy)phenyl]-2,4,4a,5,6,7-hexahydro-cyclopenta[1,2,4]triazin-3-one]
6 | 0.02 | 0.029 | COCC1CCCC2(c3ccc(CCC(C)(C)C)c(Cl)c3)NC(=O)N(CCC(=O)O)C=C12 (racemic) [Example 56]
7 | 5.7 | 5.37 | CCOC(=O)CCN1C=C2CN(C(=O)OC(C)(C)C)CC2(c2ccc(CCC(C)(C)C)c(Cl)c2)NC1=O (racemic) [Example 13]
8 | > 3.2 | 2.73 | CC(C)(C)CCc1ccc([C@]23CCCCC2=CN(C24CC(C(=O)O)(C2)C4)C(=O)N3)cc1Cl [Example 53]
9 | 0.29 | 0.139 | CC1=C2CCCCC2(c2ccc(CCC(C)(C)C)c(Cl)c2)NC(=O)N1CCC(=O)O (racemic) [Example 42]
10 | > 20 | > 20 | CC(=O)NCC1CCC2(c3ccc(CCC(C)(C)C)c(Cl)c3)NC(=O)N(CCC(=O)O)C=C12 (racemic) [Example 30]
11 | 0.007 | 0.009 | CC(C)(C)CCc1ccc(C23COC(C)(C)C2=CN(CCC(=O)O)C(=O)N3)cc1Cl (single isomer, unassigned) [Example 5]
12 | 0.755 | 0.774 | CC(C)(C)CCc1ccc([C@@]23COC(COCc4ccccc4)C2=CN(CCC(=O)O)C(=O)N3)cc1Cl (single isomer, unassigned) [Example 16]
13 | 0.151 | 0.099 | O=C(O)CCN1C=C2CCCCC2(c2ccc(OCCC3CCC3)c(Cl)c2)NC1=O (racemic) [Example 62]
14 | 2.58 | 3.43 | C[C@@H]1CCC2(c3ccc(CCC(C)(C)C)c(Cl)c3)NC(=O)N(CCC(=O)O)C=C12 (single isomer, unassigned) [Example 12]
15 | 0.043 | 0.159 | CC(C)(C)CCc1ccc(C23CCCC(CCOCc4ccccc4)C2=CN(CCC(=O)O)C(=O)N3)cc1Cl (racemic) [Example 43]
16 | > 10 | > 10 | COCC1CC[C@]2(c3ccc(CCC(C)(C)C)c(Cl)c3)NC(=O)N(C34CC(C(=O)O)(C3)C4)C=C2C1 (single isomer, unassigned) [Example 84]
17 | 0.118 | 0.072 | CC(C)(C)COc1ccc(C23CCCCC2=CN(CCC(=O)O)C(=O)N3)cc1Cl (racemic) [Example 60]
18 | 0.014 | 0.027 | CC1CCCC2(c3ccc(CCC(C)(C)C)c(Cl)c3)NC(=O)N(C34CC(C(=O)O)(C3)C4)C=C12 (racemic) [Example 73]

Row | EC50 (human RORγ) [µM] | EC50 (mouse RORγ) [µM] | Structure (SMILES)
19 | 0.034 | 0.021 | CC1CCCC2(c3ccc(CCC(C)(C)C)c(Cl)c3)NC(=O)N(CCC(=O)O)C=C12 (racemic) [Example 57]
20 | 0.024 | 0.03 | CC1CCC2(c3ccc(CCC(C)(C)C)c(Cl)c3)NC(=O)N(CCC(=O)O)C=C2C1 (single isomer, unassigned) [Example 66]
21 | 4.97 | 1.8 | CC(C)(C)CCc1ccc(C23CCCC(CC(N)=O)C2=CN(CCC(=O)O)C(=O)N3)cc1Cl (racemic) [Example 51]
22 | 0.351 | 0.243 | CC(C)(C)CCc1ccc(C23CCC(CCOCc4ccccc4)C2=CN(CCC(=O)O)C(=O)N3)cc1Cl (single isomer, unassigned) [Example 26]
23 | 0.034 | 0.052 | CC(C)(C)CCc1ccc(C23CC(C)(C)CCC2=CN(CCC(=O)O)C(=O)N3)cc1Cl (racemic) [Example 64]
24 | 0.033 | 0.02 | CC(C)(C)CCc1ccc(C23COCCC2=CN(CCC(=O)O)C(=O)N3)cc1Cl (racemic) [Example 58]
25 | > 8 | 7.48 | CCOC(=O)CCN1C=C2C(CCN(C)C)CCCC2(c2ccc(CCC(C)(C)C)c(Cl)c2)NC1=O (racemic) [Example 50]
26 | 0.093 | 0.058 | CC(C)(C)CCc1ccc(C23CCCC(CO)C2=CN(CCC(=O)O)C(=O)N3)cc1Cl (racemic) [Example 55]
27 | 0.773 | 0.452 | CC(C)(C)CCc1ccc([C@@]23COC(CO)C2=CN(CCC(=O)O)C(=O)N3)cc1Cl (single isomer, unassigned) [Example 18]
28 | 0.022 | 0.022 | CC(C)(C)CCc1ccc(C23CCC(F)(F)CC2=CN(CCC(=O)O)C(=O)N3)cc1Cl (racemic) [Example 63]
29 | 0.427 | 0.381 | CC(C)(C)CCc1ccc(C23COC(C)(C)C2=CN(c2ccc(C(=O)O)cc2)C(=O)N3)cc1Cl (single isomer, unassigned) [Example 8]
30 | 1.02 | 1.01 | CC(C)(C)CCc1ccc(C23CCC(C)(C)C2=CN(CCC(=O)O)C(=O)N3)cc1Cl (single isomer, unassigned) [Example 4]
31 | 0.01 | 0.007 | C[C@@H]1CC2=CN(CCC(=O)O)C(=O)NC2(c2ccc(CCC(C)(C)C)c(Cl)c2)CO1 (single isomer, unassigned) [Example 71]
32 | 0.015 | 0.016 | COC1CC[C@@]2(c3ccc(CCC(C)(C)C)c(Cl)c3)NC(=O)N(CCC(=O)O)C=C2C1 (single isomer, unassigned) [Example 68]
33 | 1.99 | 1.87 | CC(C)(C)CCc1ccc(C23CCCC(CCOS(C)(=O)=O)C2=CN(CCC(=O)O)C(=O)N3)cc1Cl (racemic) [Example 48]
34 | 0.302 | 0.211 | COCCC1CCCC2(c3ccc(CCC(C)(C)C)c(Cl)c3)NC(=O)N(CCC(=O)O)C=C12 (racemic) [Example 46]
35 | 0.025 | 0.025 | COCC1OC[C@@]2(c3ccc(CCC(C)(C)C)c(Cl)c3)NC(=O)N(CCC(=O)O)C=C12 (single isomer, unassigned) [Example 20]
